Consider one molecule from patent US5679680A, “α-substituted hydrazides having calpain inhibitory activity” (Warner-Lambert Company, priority 1995, dated 1997).

The target of experiment [1] is T1, Trypsin (Bos taurus, UniProt P00760).
T1 construct: purchased Sigma T8003; host or cells: bovine pancreas
T1 sequence (P00760 24-246): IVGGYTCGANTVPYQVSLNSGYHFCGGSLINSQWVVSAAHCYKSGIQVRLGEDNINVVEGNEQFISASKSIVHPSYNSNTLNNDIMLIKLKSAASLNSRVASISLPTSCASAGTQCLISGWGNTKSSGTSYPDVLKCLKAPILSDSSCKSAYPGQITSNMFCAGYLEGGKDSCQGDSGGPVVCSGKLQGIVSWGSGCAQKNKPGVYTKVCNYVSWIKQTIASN
Kind of experiment: Trypsin assay, casein substrate. It is filed as biochemical, bovine. The conditions noted are these: 0.5 mg/mL casein. As for the experimental part: (§1) Selectivity of α-substituted Hydrazides: Calpain I and II were assayed as described in Example 1. One to 2 ng papain (papaya latex, Sigma, P3125), 1.25 μg trypsin (bovine pancreas, Sigma, T8003), 5 μg thermolysin (Bacillus thermoproteolyticus, Sigma, P1512) were assayed using 0.5 mg/mL casein as substrate in the microplate format (250 μL reaction volume), essentially a described by Buroker-Kilgore, M. and Wang K K W, Anal Biochem 1993;208: 387-392. Cathepsin B (0.002 unit, bovine spleen) was assayed with 50 mM MES (pH 5.5), 100 μM carbobenzoxy-Arg-Arg-4-methoxy-beta-naphthlamide (Cbz-Arg-Arg-MNA), inhibitor, and 2 mM DTT in 200 μL for 60 minutes at room temperature. Fifty-microliter aliquots were transferred to a fluorescence-compatible plate and then read with a Perkin-Elmer fluorometer LS-50B (excitation 340 nm and emission 425 nm). Calcineurin (bovine brain, Sigma) (5 μg, 0.8 unit) was assayed with 10 mM p-nitrophenyl phosphate in 1 mM DTT, 1 mM CaCl2, 1 mM MnCl2, […] calmodulin (CaM, if added), and 50 mM Tris-HCl (pH 7.4) at 25° C. for 60 minutes or more. Production of p-nitrophenol was monitored at 405 nm. Inhibition of these proteases are presented as IC50.

Experiment [2] addresses T2, Papain (Carica papaya, UniProt P00784).
T2 construct: purchased Sigma P3125; host or cells: papaya latex
T2 sequence (P00784 134-345): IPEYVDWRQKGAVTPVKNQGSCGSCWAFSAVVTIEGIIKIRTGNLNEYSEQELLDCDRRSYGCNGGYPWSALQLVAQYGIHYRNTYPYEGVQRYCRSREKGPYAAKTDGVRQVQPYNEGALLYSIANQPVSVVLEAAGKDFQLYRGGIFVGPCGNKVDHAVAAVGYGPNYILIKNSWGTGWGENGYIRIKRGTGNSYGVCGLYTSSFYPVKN
Briefly: Papain assay, casein substrate. It is filed as biochemical. The following applies: 0.5 mg/mL casein. The procedure: as §1

For experiment [3], the system named is Spectrin Breakdown in Human Leukemic Molt-4 cells. Kind of experiment: Cell-based calpain assay: spectrin breakdown in Molt-4 cells treated with calcium ionophore A23187. The conditions noted are these: 1 hour preincubation, 15 μM A23187, 90 minutes, read-out: IC50 for inhibition of spectrin breakdown (145 kD fragment formation). The procedure: Calpain inhibitor was added to the wells if desired and preincubated for 1 hour. […] The cells were then lysed with 2% (w/v) SDS, 5 mM EGTA, 5 mM EDTA, 150 mM NaCl, 0.5 mM PMSF, 10 μg/mL AEBSF, 5 μg/mL leupeptin, 10 μg/mL pepstatin, 10 μg/mL TLCK, 10 μg/mL TPCK, and 20 mM Tris-HCl (pH 7.4) at room temperature for 5 to 10 minutes. One hundred microliters of 100% (w/v) TCA was added and total protein precipitate was collected by microcentrifugation. The final pellets were neutralized with Tris base. Protein samples (50 μg) were run on SDS-PAGE with the Tris-glycine running buffer system and transferred onto a PVDF membrane. The blots were probed with an anti-spectrin (nonerythroid) antibody and a second antibody with alkaline phosphatase conjugate. The blots were developed with nitro blue tetrazolium and 5-bromo-4-chloro-3-indolyl-phosphate.

Experiment [4] concerns the target T3, Human Calpain II (Homo sapiens, UniProt P17655).
T3 sequence (P17655 1-700): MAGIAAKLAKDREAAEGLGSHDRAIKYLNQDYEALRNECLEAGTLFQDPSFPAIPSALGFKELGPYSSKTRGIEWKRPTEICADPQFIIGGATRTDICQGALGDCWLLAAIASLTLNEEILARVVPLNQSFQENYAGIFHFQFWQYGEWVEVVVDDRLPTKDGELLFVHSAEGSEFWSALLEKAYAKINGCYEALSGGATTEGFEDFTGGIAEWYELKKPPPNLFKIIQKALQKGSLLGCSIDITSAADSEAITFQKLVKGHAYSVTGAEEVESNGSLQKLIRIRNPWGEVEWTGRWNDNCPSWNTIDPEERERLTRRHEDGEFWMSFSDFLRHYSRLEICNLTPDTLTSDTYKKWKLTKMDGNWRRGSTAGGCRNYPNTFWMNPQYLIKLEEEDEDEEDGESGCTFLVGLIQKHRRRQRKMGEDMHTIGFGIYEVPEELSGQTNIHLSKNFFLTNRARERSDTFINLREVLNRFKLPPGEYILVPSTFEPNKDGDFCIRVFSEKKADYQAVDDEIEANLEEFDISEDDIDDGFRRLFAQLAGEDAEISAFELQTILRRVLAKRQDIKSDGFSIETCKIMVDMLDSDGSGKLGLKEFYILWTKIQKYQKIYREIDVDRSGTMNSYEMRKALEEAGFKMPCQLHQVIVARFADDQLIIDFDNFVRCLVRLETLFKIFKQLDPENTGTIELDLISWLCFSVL
T3 sequence (P04632 1-268 partner): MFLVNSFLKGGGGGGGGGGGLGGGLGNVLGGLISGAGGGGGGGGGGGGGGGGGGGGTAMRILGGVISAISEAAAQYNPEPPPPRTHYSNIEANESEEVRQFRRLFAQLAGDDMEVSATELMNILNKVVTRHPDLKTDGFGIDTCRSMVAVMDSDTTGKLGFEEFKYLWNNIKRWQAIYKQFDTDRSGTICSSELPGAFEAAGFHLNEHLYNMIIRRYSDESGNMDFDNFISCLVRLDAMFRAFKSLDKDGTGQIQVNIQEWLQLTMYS
Kind of experiment: Calpain II activity, casein substrate, Coomassie microplate assay. The format is biochemical. The conditions noted are these: casein 0.5 mg/mL (Table I). The procedure: Assay of calpain activity: Calpain I was purified from human erythrocytes as described by Wang K K W, Roufogalis B D, and Villalobo A, Arch Biochem Biophys 1988;267: 317-327. Calpain activity was assayed in a 96-well microplate format (Buroker-Kilgore M and Wang K K W, Anal Bio Chem 1993;208: 387-392). In 250 μL of reaction mixture, substrate casein (0.5 mg/mL) was incubated with 0.01 unit (80-120 ng) calpain I, 20 mM dithiothreitol (DTT), 50 mM Tris-HCl (pH 7.4 at 25° C.) and 4 mM CaCl2 at 25° C. for 60 minutes. Two 100-μL aliquots were taken for Coomassie blue G250 binding analysis to quantify the remaining casein.
Compound concentrations that cause 50% inhibition (IC50) are as shown (Table I). The second rate of inactivation of calpain I for 2 compounds are also shown.
as §1

Some results are limits rather than exact numbers.

In the case of `O=C(CCl)NN=c1[nH]c2ccccc2n(-c2ccccc2)c1=O` [Example 5, 2-Chloro-acetic acid (3-oxo-4-phenyl-3,4-dihydro-1H-quinoxalin-2-ylidene)-hydrazide], the IC50 is more than 200 µM in experiment [1], 5.6 µM in experiment [2], 25 µM in experiment [3] and 0.59 µM in experiment [4].

One may read the IC50 as the concentration that inhibits the measured activity by half.
